The target of assay [1] is T1, FABP5 (Homo sapiens, UniProt Q01469).
T1 construct: made in house
The settings on record: cited from earlier work.

The target of the next assay is FABP7 (Homo sapiens, UniProt O15540). Conditions: natural substrate; read-out: Ki against FABP7; cited from earlier work.
Assay [2] deals with male C57Bl6 mice. The experiment in a line: Formalin test. Type of assay: in vivo. As for the experimental part:
(§1) We used male C57Bl6 mice (22-30 g, Taconic Farms) for all experiments. The animals were group housed at room temperature and kept on a 12:12 hour light:dark cycle with ad libitum access to water and food. The animals were habituated to the experimental room for one week before testing. All experiments were approved by the Stony Brook University Institutional Animal Care and Use Committee. The experimenter was blinded to the treatment conditions of each animal.
Mice were habituated to the observation chamber (Plexiglas box, 25 cm×25 cm×25 cm) for 30 min prior to formalin injection. The mice subsequently received an injection of formalin (2.5% in saline, 20 μl) into the plantar surface of the right hind paw using a 27 gauge needle. The animals were immediately placed back into the observation, chamber and nocifensive behavior (time spent licking or biting the paw) was recorded for 60 min. The formalin test consists of two phases with the first phase (0-5 min) reflecting nociceptor activation and the second phase (15-45 min) reflecting an inflammatory pain response.
(§2) Behavioral data are presented as means±S.E.M. for the vehicle and inhibitor-treated groups, each consisting of at least 6 animals. Statistical significance between vehicle and inhibitor groups was determined using unpaired t-tests or one-way ANOVA followed by Dunnett's post hoc analysis. In all cases, differences of p<0.05 were considered significant.

Assay [3] has as its target T1, FABP5. Description: High throughput fluorescence displacement assay with NBD-stearate. The assay is classed as binding. Conditions: stated in words only. As for the experimental part: FABP5 (30 μg), NBD-stearate (1 μM), and a competitor test compound were incubated in 30 mM Tris-HCl, 100 mM NaCl buffer (pH 7.6). […] The initial assay was run with buffer (30 mM Tris-HCl buffer), negative controls (buffer and NBD-stearate), positive controls (buffer, NBD-stearate, FABP5), and experimental wells with a variable test compound added (arachidonic acid or one of the 48 test compounds) at 10 μM. […] The Kd of NBD-stearate for FABP5 had been determined previously through incubating FABP5 with increasing concentrations of NBD-stearate.

The subject of assay [4] is male C57Bl6 mice. Description: Carrageenan-induced paw edema and thermal hyperalgesia. Type of assay: in vivo. Conditions: 20 mg/kg, i.p. (FIG. 16A). As for the experimental part: as §1
Paw edema was induced by injecting 1% λ-carrageenan (20 μl, in sterile saline) into the plantar surface of the left hind paw and a control solution of saline into the right hind paw using a 27 gauge needle. Paw diameters were measured before carrageenan injection and 4 hours after injection using digital electronic calipers (Fisher) and expressed to the nearest ±0.01 mm. […] The cannabinoid receptor antagonists, rimonabant and SR144528 (3 mg/kg, i.p.), in ethanol:emulphor:saline (1:1:18), were injected 15 min before the FABP inhibitor. Edema is reported as the change in paw diameter at 4 hr over the baseline. Changes in paw diameter of saline-injected contralateral paws were negligible. Thermal hyperalgesia measured the latency to withdraw the paw from a focused beam of radiant heat applied to the plantar surface of the hind paw using a Hargreaves plantar apparatus (Ugo Basile) set at an intensity of 3.0. For each mouse, the average latencies consisted of three trials spaced at least 5 minutes apart. The mice were habituated to the test chamber for 30 min. The cutoff time was set at 30 sec.
as §2

The target of a further assay is FABP4 (Homo sapiens, UniProt P15090). The settings on record: McDonnell 2006; read-out: Ki against FABP4 (1,8-ANS displacement); cited from earlier work.
FABP4, sequence (P15090 whole entry, species assumed): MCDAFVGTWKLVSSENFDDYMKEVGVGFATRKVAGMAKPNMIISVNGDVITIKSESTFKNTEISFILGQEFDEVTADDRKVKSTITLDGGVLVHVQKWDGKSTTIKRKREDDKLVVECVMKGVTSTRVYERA
For assay [5] the following is noted: literature; cited from earlier work.
For assay [6], the system named is male C57Bl6 mice. The settings on record: literature SAR study (Chi 2005); cited from earlier work.

One may read the Kd as the concentration at which binding is half-saturated.

T1 sequence (Q01469 whole entry, species assumed): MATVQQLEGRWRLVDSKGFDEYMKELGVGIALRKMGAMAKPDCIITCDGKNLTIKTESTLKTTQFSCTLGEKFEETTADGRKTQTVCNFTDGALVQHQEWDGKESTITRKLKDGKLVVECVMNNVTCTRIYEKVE
FABP7, sequence (O15540 whole entry, species assumed): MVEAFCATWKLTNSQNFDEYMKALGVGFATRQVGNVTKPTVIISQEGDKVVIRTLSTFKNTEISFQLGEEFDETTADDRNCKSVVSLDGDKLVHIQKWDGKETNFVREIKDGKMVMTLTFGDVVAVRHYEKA

Consider `CCCCC/C=C\C/C=C\C/C=C\C/C=C\CCCC(=O)O` [arachidonic acid], for which the Ki on FABP5 [1] (published value, read-out: Ki against FABP5, published / previously determined) is 130 nM.
Turning to `CCCCCCCC/C=C\CCCCCCCC(=O)O` [oleic acid], the Ki on FABP7 is 350 nM.
On to `O=C(O)C1C(c2ccccc2)C(C(=O)Oc2cccc3ccccc23)C1c1ccccc1` (stereo not shown) [Compound 49, γ-2,4-diphenyl-cyclobutane-1,3-dicarboxylic Acid mono-(1-napthyl) Ester], for which, in the assay on male C57Bl6 mice [2] (mouse, in vivo), the “results in formalin induced mice models” value was “excellent results”.
Take `O=C(O)[C@H]1[C@H](c2ccccc2)[C@H](C(=O)Oc2ccc3ccccc3c2)[C@H]1c1ccccc1` (stereo in doubt) [Compound 54, 3-((naphthalen-2-yloxy)carbonyl)-2,4-diphenylcyclobutanecarboxylic Acid]: the FABP inhibition activity result on FABP5 [3] is recorded as “analogous FABP inhibition activity to Compound 26”. For the same compound, in the assay with male C57Bl6 mice [4], the “carrageenan-induced paw edema, 24 hrs after inhibitor administration” value is on record as “reduced” and the “carrageenan-induced thermal hyperalgesia, 24 hrs after inhibitor administration” value was “reduced”. Further, in the assay on male C57Bl6 mice [2] (FIG. 16B), the “first phase of formalin-induced nociception” value is on record as “reduce” and the “second phase of formalin-induced nociception” value is listed as “reduce”.
Take `O=C(O)[C@@H](O)c1cccc(OCc2ccccc2Cl)c1OCc1ccccc1Cl` [BMS480404]: the Ki on FABP4 is 2.5 nM.
In the case of `COc1cc([C@H]2[C@H](C(=O)O[C@@H]3C[C@@H]4[C@@H](CN(C)C[C@@H]4C)[C@@H]3C)[C@H](c3ccc(O)c(OC)c3)[C@H]2C(=O)O[C@@H]2C[C@@H]3[C@@H](CN(C)C[C@@H]3C)[C@@H]2C)ccc1O` [(−)-incarvillateine], the antinociceptive properties entry in assay [5] is reported as “antinociceptive properties on the same level as morphine”.
For `O=C(O)C1C(c2ccccc2)C(C(=O)O)C1c1ccccc1` (stereo not drawn) [α-truxillic acid, α-2,4-diphenyl-cyclobutane-1,3-dicarboxylic Acid], the “antinociception in early and late stage pain, formalin induced mouse models” value in the assay on male C57Bl6 mice [6] is “best antinociceptive agent in both early and late stage pain”.
With `O=C(O)[C@H]1[C@H](c2ccccc2)[C@H](C(=O)Nc2cccc3ccccc23)[C@H]1c1ccccc1` (stereo in doubt) [Compound 53, 3-(naphthalen-1-ylcarbamoyl)-2,4-diphenylcyclobutanecarboxylic Acid], on FABP5 [3], the FABP inhibition activity result is “analogous FABP inhibition activity to Compound 26”.
For the compound `CCCCCCC(CCCCCCCCCCC(=O)O)N(C)c1ccc([N+](=O)[O-])c2nonc12` (stereo not shown) [NBD-stearate, 12-N-methyl-(7-nitrobenz-2-oxa-1,3-diazo) aminostearic acid], the Kd on FABP5 [1] (one site binding analysis, determined previously (Kaczocha 2012), read-out: Kd of NBD-stearate for FABP5) is 160 nM.
